In ChEMBL document CHEMBL3745638, “Synthesis and biological evaluation of a novel artesunate-podophyllotoxin conjugate as anticancer agent” (Bioorg Med Chem Lett, 2016):
Calls of active or inactive are those of the source. The calls are words filed in the database; no cut-off is given here.

Experiments:
K562 [1] = experiment: Antiproliferative activity against human K562 cells assessed as growth inhibition after 72 hrs by CCK-8 assay; assay type: functional, cell-based; conditions: K562, 72 h
[2] = Antiproliferative activity against human K562/ADR cells assessed as growth inhibition after 72 hrs by CCK-8 assay; assay type: functional, cell-based
HepG2 = experiment: Antiproliferative activity against human HepG2 cells assessed as growth inhibition after 72 hrs by CCK-8 assay; assay type: functional, cell-based; conditions: HepG2, 72 h
A549 = experiment: Antiproliferative activity against human A549 cells assessed as growth inhibition after 72 hrs by CCK-8 assay; assay type: functional, cell-based; conditions: A549, 72 h
HeLa = experiment: Antiproliferative activity against human HeLa cells assessed as growth inhibition after 72 hrs by CCK-8 assay; assay type: functional, cell-based
HUVEC = experiment: Antiproliferative activity against HUVEC assessed as growth inhibition after 72 hrs by CCK-8 assay; assay type: cell-based; conditions: Homo sapiens
K562 [3] = experiment: Resistance factor, ratio of IC50 for human K562/ADR cells to IC50 for human K562 cells; assay type: functional
[4] = Cell cycle arrest in human K562/ADR cells assessed as accumulation in G2/M phase at 2.5 uM after 48 hrs by propidium iodide staining-based flow cytometry (reference value: 8.32 +/- 0.81%); assay type: functional
K562/Adr [5] = experiment: Induction of apoptosis in human K562/ADR cells assessed as viable cells at 2.5 uM after 48 hrs by Annexin V-APC/7-AAD staining based flow cytometry (reference value: 93.25%); assay type: functional; conditions: read-out: Activity
K562/Adr [6] = experiment: Induction of apoptosis in human K562/ADR cells assessed as early apoptotic cells at 2.5 uM after 48 hrs by Annexin V-APC/7-AAD staining based flow cytometry (reference value: 1.49%); assay type: functional
K562/Adr [7] = experiment: Induction of apoptosis in human K562/ADR cells assessed as late apoptotic cells at 2.5 uM after 48 hrs by Annexin V-APC/7-AAD staining based flow cytometry (reference value: 1.69%); assay type: functional
K562/Adr [8] = experiment: Induction of apoptosis in human K562/ADR cells assessed as necrotic cells at 2.5 uM after 48 hrs by Annexin V-APC/7-AAD staining based flow cytometry (reference value: 3.57%); assay type: functional
K562/Adr [9] = experiment: Induction of apoptosis in human K562/ADR cells assessed as induction of cell shrinkage at 2.5 uM after 48 hrs by Hoechst 33342 staining based fluorescence microscopy; assay type: functional
K562/Adr [10] = experiment: Induction of apoptosis in human K562/ADR cells assessed as nuclear fragmentation at 2.5 uM after 48 hrs by Hoechst 33342 staining based fluorescence microscopy; assay type: functional, cell-based
K562/Adr [11] = experiment: Induction of apoptosis in human K562/ADR cells assessed as nuclear condensation at 2.5 uM after 48 hrs by Hoechst 33342 staining based fluorescence microscopy; assay type: functional, cell-based
K562/Adr [12] = experiment: Inhibition of P-glycoprotein in human K562/ADR cells at 2.5 uM after 48 hrs by Western blot analysis; assay type: cell-based
Tubulin (Homo sapiens) [13] = biological target: T1, Tubulin (Homo sapiens) (UniProt P68371+Q9H4B7+P0DPH7+P68366+Q13509+Q71U36+P04350+Q3ZCM7+P07437+P68363+Q9BQE3+Q6PEY2+Q13885+Q9BVA1+Q9BUF5); experiment: Inhibition of tubulin polymerization in human K562/ADR cells assessed as reduction in microtubule density at 5 uM after 8 hrs by DAPI staining based immunofluorescence microscopy; assay type: cell-based
Tubulin (Homo sapiens) [14] = biological target: T1, Tubulin (Homo sapiens); experiment: Inhibition of tubulin polymerization in human K562/ADR cells assessed as microtubule disruption at 5 uM after 8 hrs by DAPI staining based immunofluorescence microscopy; assay type: cell-based
[15] = Cell cycle arrest in human K562/ADR cells assessed as accumulation in G2/M phase at 0.1 uM after 48 hrs by propidium iodide staining-based flow cytometry (reference value: 8.32 +/- 0.81%); assay type: functional
K562/Adr [16] = experiment: Induction of apoptosis in human K562/ADR cells assessed as viable cells at 0.1 uM after 48 hrs by Annexin V-APC/7-AAD staining based flow cytometry (reference value: 93.25%); assay type: functional; conditions: read-out: Activity
K562/Adr [17] = experiment: Induction of apoptosis in human K562/ADR cells assessed as early apoptotic cells at 0.1 uM after 48 hrs by Annexin V-APC/7-AAD staining based flow cytometry (reference value: 1.49%); assay type: functional
K562/Adr [18] = experiment: Induction of apoptosis in human K562/ADR cells assessed as late apoptotic cells at 0.1 uM after 48 hrs by Annexin V-APC/7-AAD staining based flow cytometry (reference value: 1.69%); assay type: functional
K562/Adr [19] = experiment: Induction of apoptosis in human K562/ADR cells assessed as necrotic cells at 0.1 uM after 48 hrs by Annexin V-APC/7-AAD staining based flow cytometry (reference value: 3.57%); assay type: functional
K562/Adr [20] = experiment: Induction of apoptosis in human K562/ADR cells assessed as induction of cell shrinkage at 0.1 uM after 48 hrs by Hoechst 33342 staining based fluorescence microscopy; assay type: functional
K562/Adr [21] = experiment: Induction of apoptosis in human K562/ADR cells assessed as nuclear fragmentation at 0.1 uM after 48 hrs by Hoechst 33342 staining based fluorescence microscopy; assay type: functional, cell-based
K562/Adr [22] = experiment: Induction of apoptosis in human K562/ADR cells assessed as nuclear condensation at 0.1 uM after 48 hrs by Hoechst 33342 staining based fluorescence microscopy; assay type: functional, cell-based
K562/Adr [23] = experiment: Inhibition of P-glycoprotein in human K562/ADR cells at 0.1 uM after 48 hrs by Western blot analysis; assay type: cell-based
Tubulin (Homo sapiens) [24] = biological target: T1, Tubulin (Homo sapiens); conditions: K562/Adr, 0.2 uM
Description: Inhibition of tubulin polymerization in human K562/ADR cells assessed as reduction in microtubule density at 0.2 uM after 8 hrs by DAPI staining based immunofluorescence microscopy

Tubulin (Homo sapiens) [25] = biological target: T1, Tubulin (Homo sapiens); conditions: K562/Adr, 0.2 uM; remark: listed apart in the source
Description: Inhibition of tubulin polymerization in human K562/ADR cells assessed as microtubule disruption at 0.2 uM after 8 hrs by DAPI staining based immunofluorescence microscopy

[26] = Cell cycle arrest in human K562/ADR cells assessed as accumulation in G2/M phase at 6.5 uM after 48 hrs by propidium iodide staining-based flow cytometry (reference value: 8.32 +/- 0.81%); assay type: functional
K562/Adr [27] = experiment: Induction of apoptosis in human K562/ADR cells assessed as viable cells at 6.5 uM after 48 hrs by Annexin V-APC/7-AAD staining based flow cytometry (reference value: 93.25%); assay type: functional; conditions: read-out: Activity
K562/Adr [28] = experiment: Induction of apoptosis in human K562/ADR cells assessed as early apoptotic cells at 6.5 uM after 48 hrs by Annexin V-APC/7-AAD staining based flow cytometry (reference value: 1.49%); assay type: functional
K562/Adr [29] = experiment: Induction of apoptosis in human K562/ADR cells assessed as late apoptotic cells at 6.5 uM after 48 hrs by Annexin V-APC/7-AAD staining based flow cytometry (reference value: 1.69%); assay type: functional
K562/Adr [30] = experiment: Induction of apoptosis in human K562/ADR cells assessed as necrotic cells at 6.5 uM after 48 hrs by Annexin V-APC/7-AAD staining based flow cytometry (reference value: 3.57%); assay type: functional
K562/Adr [31] = experiment: Induction of apoptosis in human K562/ADR cells assessed as induction of cell shrinkage at 6.5 uM after 48 hrs by Hoechst 33342 staining based fluorescence microscopy; assay type: functional
K562/Adr [32] = experiment: Induction of apoptosis in human K562/ADR cells assessed as nuclear fragmentation at 6.5 uM after 48 hrs by Hoechst 33342 staining based fluorescence microscopy; assay type: functional, cell-based
K562/Adr [33] = experiment: Induction of apoptosis in human K562/ADR cells assessed as nuclear condensation at 6.5 uM after 48 hrs by Hoechst 33342 staining based fluorescence microscopy; assay type: functional, cell-based
K562/Adr [34] = experiment: Inhibition of P-glycoprotein in human K562/ADR cells at 6.5 uM after 48 hrs by Western blot analysis; assay type: cell-based
Tubulin (Homo sapiens) [35] = biological target: T1, Tubulin (Homo sapiens); experiment: Inhibition of tubulin polymerization in human K562/ADR cells assessed as reduction in microtubule density at 13 uM after 16 hrs by DAPI staining based immunofluorescence microscopy; assay type: cell-based
Tubulin (Homo sapiens) [36] = biological target: T1, Tubulin (Homo sapiens); experiment: Inhibition of tubulin polymerization in human K562/ADR cells assessed as microtubule disruption at 13 uM after 16 hrs by DAPI staining based immunofluorescence microscopy; assay type: cell-based

SMILES: COc1cc([C@@H]2c3cc4c(cc3[C@H](OC(=O)CCC(=O)O[C@H]3O[C@@H]5O[C@@]6(C)CC[C@H]7[C@H](C)CC[C@@H]([C@H]3C)[C@@]57OO6)[C@H]3COC(=O)[C@H]23)OCO4)cc(OC)c1OC
- IC50 (K562 [1]): 453 nM
- IC50 [2]: 2020 nM
- IC50 (HepG2): 672 nM
- IC50 (A549): 3010 nM
- IC50 (HeLa): 936 nM
- IC50 (HUVEC): 720 nM
- Ratio IC50 (K562 [3]): 4.454
- Activity [4]: 21.4%
- viability at 2.5 µM (K562/Adr [5]): 88.1%
- Activity (K562/Adr [6]): 2.68%
- Activity (K562/Adr [7]): 2.82%
- Activity (K562/Adr [8]): 6.39%
- Activity (K562/Adr [9]): Active
- Activity (K562/Adr [10]): Active
- Activity (K562/Adr [11]): Active
- inhibition (K562/Adr [12]): Active
- inhibition (Tubulin (Homo sapiens) [13]): Active
- inhibition (Tubulin (Homo sapiens) [14]): Active

SMILES: COc1cc([C@@H]2c3cc4c(cc3[C@H](O)[C@H]3COC(=O)[C@H]23)OCO4)cc(OC)c1OC [PODOFILOX]
- IC50 (K562 [1]): 6 nM
- IC50 [2]: 85 nM
- IC50 (HepG2): 14 nM
- IC50 (A549): 14 nM
- IC50 (HeLa): 12 nM
- IC50 (HUVEC): 14 nM
- Ratio IC50 (K562 [3]): 14.166
- Activity [15]: 33.2%
- viability at 0.1 µM (K562/Adr [16]): 54.4%
- Activity (K562/Adr [17]): 24.7%
- Activity (K562/Adr [18]): 10.65%
- Activity (K562/Adr [19]): 10.26%
- Activity (K562/Adr [20]): Active
- Activity (K562/Adr [21]): Active
- Activity (K562/Adr [22]): Active
- inhibition (K562/Adr [23]): Active
- inhibition (Tubulin (Homo sapiens) [24]): Active
- inhibition (Tubulin (Homo sapiens) [25]): Active

SMILES: COc1cc([C@@H]2c3cc4c(cc3[C@@H](O[C@@H]3O[C@@H]5CO[C@@H](C)O[C@H]5[C@H](O)[C@H]3O)[C@H]3COC(=O)[C@H]23)OCO4)cc(OC)c1O [ETOPOSIDE]
- IC50 (K562 [1]): 413 nM
- IC50 [2]: 2020 nM
- IC50 (HepG2): 1750 nM
- IC50 (A549): 2680 nM
- IC50 (HeLa): 1600 nM
- IC50 (HUVEC): 1340 nM
- Ratio IC50 (K562 [3]): 4.903

SMILES: C[C@H]1[C@H](OC(=O)CCC(=O)O)O[C@@H]2O[C@@]3(C)CC[C@H]4[C@H](C)CC[C@@H]1[C@@]24OO3 [ARTESUNATE]
- IC50 (K562 [1]): 6000 nM
- IC50 [2]: 6260 nM
- IC50 (HepG2): 22200 nM
- IC50 (A549): 15900 nM
- IC50 (HeLa): 19000 nM
- IC50 (HUVEC): 1090 nM
- Ratio IC50 (K562 [3]): 1.042
- Activity [26]: 16.9%
- viability at 6.5 µM (K562/Adr [27]): 77.5%
- Activity (K562/Adr [28]): 5.97%
- Activity (K562/Adr [29]): 9.31%
- Activity (K562/Adr [30]): 7.2%
- Activity (K562/Adr [31]): Active
- Activity (K562/Adr [32]): Active
- Activity (K562/Adr [33]): Active
- inhibition (K562/Adr [34]): Active
- inhibition (Tubulin (Homo sapiens) [35]): Active
- inhibition (Tubulin (Homo sapiens) [36]): Active
